Experimental data as given in ChEMBL document CHEMBL2434967, “Synthesis, characterization, antiparasitic and cytotoxic evaluation of thioureas conjugated to polyamine scaffolds” (Eur J Med Chem, 2013).

Experiments:
Plasmodium falciparum [1] = assay: Antiplasmodial activity against chloroquine-sensitive erythrocyte stages of Plasmodium falciparum NF54 by parasite lactate dehydrogenase assay; format: functional, organism-based
Plasmodium falciparum [2] = assay: Resistance index, ratio of IC50 for chloroquine-resistant Plasmodium falciparum Dd2 to IC50 for chloroquine-sensitive Plasmodium falciparum NF54; format: functional
[3] = Inhibition of beta-hematin formation after overnight incubation by NP-40 detergent-mediated spectroscopic analysis; format: functional
Trichomonas vaginalis = assay: Antimicrobial activity against Trichomonas vaginalis G3 assessed as growth inhibition at 10 uM after 24 hrs by hemocytometry; format: functional; details: G3, 24 h, read-out: GI
[4] = Cytotoxicity against human WHCO1 cells after 48 hrs by MTT assay; format: functional, cell-based; details: WHCO1, 48 h
Plasmodium falciparum [5] = assay: Antiplasmodial activity against chloroquine-resistant erythrocyte stages of Plasmodium falciparum Dd2 by parasite lactate dehydrogenase assay; format: functional, organism-based

Row | SMILES | IC50 (Plasmodium falciparum [1]) | Ratio IC50 (Plasmodium falciparum [2]) | IC50 [3] | inhibition of growth at 10 µM (Trichomonas vaginalis) | IC50 [4] | IC50 (Plasmodium falciparum [5])
1 | S=C(NCCCNc1ccnc2cc(Cl)ccc12)NCCN(CCNC(=S)NCCCNc1ccnc2cc(Cl)ccc12)CCNC(=S)NCCCNc1ccnc2cc(Cl)ccc12 | 90 nM | 5.8 | 4480 nM | 51.4% | 6210 nM | 520 nM
2 | S=C(NCCCNC(=S)NCCCNc1ccnc2cc(Cl)ccc12)NCCCNc1ccnc2cc(Cl)ccc12 | 340 nM | 0.7 | 6520 nM | 55.9% | 38400 nM | 230 nM
3 | Cc1ncc([N+](=O)[O-])n1CCO [METRONIDAZOLE] |  |  |  | 100% |  | 
4 | CCN(CC)CCCC(C)Nc1ccnc2cc(Cl)ccc12 (stereo unspecified) [CHLOROQUINE] |  |  | 73800 nM |  |  | 
5 | CCCNC(=S)NCCCNc1ccnc2cc(Cl)ccc12 | 160 nM | 1.6 | 58200 nM | 34.9% | 43800 nM | 260 nM
6 | S=C(NCCCNc1ccnc2cc(Cl)ccc12)NCCCN(CCCCN(CCCNC(=S)NCCCNc1ccnc2cc(Cl)ccc12)CCCNC(=S)NCCCNc1ccnc2cc(Cl)ccc12)CCCNC(=S)NCCCNc1ccnc2cc(Cl)ccc12 | 200 nM | 2.5 | < 4500 nM | 58.7% | 990 nM | 510 nM
